Results reported in the kinase profiling compilation of Christmann-Franck et al. (2016).

Tests used:
Test in all cases: radiometric filter-binding kinase assay, Kinase HotSpot
Conditions in all cases: compound 0.5 µM; ATP 10 µM
PRKX (human) = PRKX (human) (UniProt P51817)
PRKCD (human) = PRKCD (human) (UniProt Q05655)
MARK4 (human) = MARK4 (human) (UniProt Q96L34)
CAMK1G (human) = CAMK1G (human) (UniProt Q96NX5)
MAPK13 (human) = MAPK13 (human) (UniProt O15264)
PAK2 (human) = PAK2 (human) (UniProt Q13177)
DYRK4 (human) = DYRK4 (human) (UniProt Q9NR20)
AURKC (human) = AURKC (human) (UniProt Q9UQB9)
TXK (human) = TXK (human) (UniProt P42681)
FRK (human) = FRK (human) (UniProt P42685)
CLK1 (human) = CLK1 (human) (UniProt P49759)
ZAP70 (human) = ZAP70 (human) (UniProt P43403)
MAP3K7 TAB1 (human) = MAP3K7 TAB1 (human) (UniProt O43318+Q15750)
PTK2 (human) = PTK2 (human) (UniProt Q05397)
TSSK2 (human) = TSSK2 (human) (UniProt Q96PF2)
PDPK1 (human) = PDPK1 (human) (UniProt O15530)
IKBKB (human) = IKBKB (human) (UniProt O14920)
EPHB2 (human) = EPHB2 (human) (UniProt P29323)
MAP3K3 (human) = MAP3K3 (human) (UniProt Q99759)
RIPK2 (human) = RIPK2 (human) (UniProt O43353)
MST4 (human) = MST4 (human) (UniProt Q9P289)
RPS6KA5 KD2 (human) = RPS6KA5 KD2 (human) (UniProt O75582)
MERTK (human) = MERTK (human) (UniProt Q12866)
CDC42BPB (human) = CDC42BPB (human) (UniProt Q9Y5S2)
IGF1R (human) = IGF1R (human) (UniProt P08069)
GSK3B (human) = GSK3B (human) (UniProt P49841)
MAPKAPK5 (human) = MAPKAPK5 (human) (UniProt Q8IW41)
TGFBR1 (human) = TGFBR1 (human) (UniProt P36897)
MAP3K2 (human) = MAP3K2 (human) (UniProt Q9Y2U5)
RPS6KA6 KD1 KD2 (human) = RPS6KA6 KD1 KD2 (human) (UniProt Q9UK32)
STK11 (human) = STK11 (human) (UniProt Q15831)
MAP4K5 (human) = MAP4K5 (human) (UniProt Q9Y4K4)
TAOK2 (human) = TAOK2 (human) (UniProt Q9UL54)
LIMK1 (human) = LIMK1 (human) (UniProt P53667)
PLK3 (human) = PLK3 (human) (UniProt Q9H4B4)
DSTYK (human) = DSTYK (human) (UniProt Q6XUX3)
PDGFRB (human) = PDGFRB (human) (UniProt P09619)
BTK (human) = BTK (human) (UniProt Q06187)
LCK (human) = LCK (human) (UniProt P06239)
PRKCZ (human) = PRKCZ (human) (UniProt Q05513)
MINK1 (human) = MINK1 (human) (UniProt Q8N4C8)
RET (human) = RET (human) (UniProt P07949)

IKBKB (human), sequence (O14920 whole entry, looked up): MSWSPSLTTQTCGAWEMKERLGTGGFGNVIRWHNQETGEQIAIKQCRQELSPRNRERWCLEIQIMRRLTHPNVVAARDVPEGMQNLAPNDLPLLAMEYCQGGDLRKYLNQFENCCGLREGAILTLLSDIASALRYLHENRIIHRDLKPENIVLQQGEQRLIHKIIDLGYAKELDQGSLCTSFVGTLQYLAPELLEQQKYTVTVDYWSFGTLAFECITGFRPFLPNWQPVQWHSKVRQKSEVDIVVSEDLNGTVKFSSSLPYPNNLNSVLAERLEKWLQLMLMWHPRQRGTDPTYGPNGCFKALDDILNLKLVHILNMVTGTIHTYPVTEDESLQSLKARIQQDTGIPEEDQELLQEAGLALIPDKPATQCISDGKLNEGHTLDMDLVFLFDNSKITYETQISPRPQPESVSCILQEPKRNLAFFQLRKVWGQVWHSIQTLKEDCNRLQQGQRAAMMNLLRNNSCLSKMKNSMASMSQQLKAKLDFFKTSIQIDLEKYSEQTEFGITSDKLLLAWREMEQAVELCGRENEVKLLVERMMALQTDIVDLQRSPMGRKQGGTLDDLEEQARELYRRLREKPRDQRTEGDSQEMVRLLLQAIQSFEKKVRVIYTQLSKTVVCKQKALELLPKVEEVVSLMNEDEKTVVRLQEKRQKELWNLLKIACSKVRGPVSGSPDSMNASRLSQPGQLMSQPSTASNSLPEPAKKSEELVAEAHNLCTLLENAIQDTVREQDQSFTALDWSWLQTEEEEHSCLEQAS
PRKCD (human), sequence (Q05655 whole entry, looked up): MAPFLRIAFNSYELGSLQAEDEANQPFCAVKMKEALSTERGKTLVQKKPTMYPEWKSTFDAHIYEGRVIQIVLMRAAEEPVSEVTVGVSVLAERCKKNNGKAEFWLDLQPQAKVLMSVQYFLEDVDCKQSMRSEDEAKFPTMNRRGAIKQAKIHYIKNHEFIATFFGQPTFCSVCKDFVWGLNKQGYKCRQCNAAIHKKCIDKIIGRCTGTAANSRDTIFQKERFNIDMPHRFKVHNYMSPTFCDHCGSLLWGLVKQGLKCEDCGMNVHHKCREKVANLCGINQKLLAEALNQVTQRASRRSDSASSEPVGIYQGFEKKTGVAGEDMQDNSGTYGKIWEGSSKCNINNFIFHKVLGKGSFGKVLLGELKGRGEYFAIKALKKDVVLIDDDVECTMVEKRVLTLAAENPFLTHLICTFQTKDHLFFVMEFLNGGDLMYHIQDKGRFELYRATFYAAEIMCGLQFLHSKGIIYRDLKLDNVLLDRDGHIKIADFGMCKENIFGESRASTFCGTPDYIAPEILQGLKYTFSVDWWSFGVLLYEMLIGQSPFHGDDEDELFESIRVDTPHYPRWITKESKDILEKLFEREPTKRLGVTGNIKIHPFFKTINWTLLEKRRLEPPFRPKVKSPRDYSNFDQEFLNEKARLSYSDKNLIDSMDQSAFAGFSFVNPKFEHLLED
TXK (human), sequence (P42681 whole entry, looked up): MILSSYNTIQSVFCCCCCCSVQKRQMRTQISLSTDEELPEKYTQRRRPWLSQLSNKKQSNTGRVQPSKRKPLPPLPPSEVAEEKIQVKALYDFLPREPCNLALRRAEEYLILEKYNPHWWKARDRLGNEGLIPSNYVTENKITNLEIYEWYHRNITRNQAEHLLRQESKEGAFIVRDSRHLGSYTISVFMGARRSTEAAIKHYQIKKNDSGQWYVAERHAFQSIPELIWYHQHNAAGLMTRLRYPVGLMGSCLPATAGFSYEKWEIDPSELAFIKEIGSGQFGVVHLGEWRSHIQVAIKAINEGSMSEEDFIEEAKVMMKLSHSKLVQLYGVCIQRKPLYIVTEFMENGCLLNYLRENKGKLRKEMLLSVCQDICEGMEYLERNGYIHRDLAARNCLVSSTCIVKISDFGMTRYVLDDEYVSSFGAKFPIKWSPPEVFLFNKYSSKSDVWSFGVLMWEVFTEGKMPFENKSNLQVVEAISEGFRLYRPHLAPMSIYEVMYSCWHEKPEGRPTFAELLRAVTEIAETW
PTK2 (human), sequence (Q05397 whole entry, looked up): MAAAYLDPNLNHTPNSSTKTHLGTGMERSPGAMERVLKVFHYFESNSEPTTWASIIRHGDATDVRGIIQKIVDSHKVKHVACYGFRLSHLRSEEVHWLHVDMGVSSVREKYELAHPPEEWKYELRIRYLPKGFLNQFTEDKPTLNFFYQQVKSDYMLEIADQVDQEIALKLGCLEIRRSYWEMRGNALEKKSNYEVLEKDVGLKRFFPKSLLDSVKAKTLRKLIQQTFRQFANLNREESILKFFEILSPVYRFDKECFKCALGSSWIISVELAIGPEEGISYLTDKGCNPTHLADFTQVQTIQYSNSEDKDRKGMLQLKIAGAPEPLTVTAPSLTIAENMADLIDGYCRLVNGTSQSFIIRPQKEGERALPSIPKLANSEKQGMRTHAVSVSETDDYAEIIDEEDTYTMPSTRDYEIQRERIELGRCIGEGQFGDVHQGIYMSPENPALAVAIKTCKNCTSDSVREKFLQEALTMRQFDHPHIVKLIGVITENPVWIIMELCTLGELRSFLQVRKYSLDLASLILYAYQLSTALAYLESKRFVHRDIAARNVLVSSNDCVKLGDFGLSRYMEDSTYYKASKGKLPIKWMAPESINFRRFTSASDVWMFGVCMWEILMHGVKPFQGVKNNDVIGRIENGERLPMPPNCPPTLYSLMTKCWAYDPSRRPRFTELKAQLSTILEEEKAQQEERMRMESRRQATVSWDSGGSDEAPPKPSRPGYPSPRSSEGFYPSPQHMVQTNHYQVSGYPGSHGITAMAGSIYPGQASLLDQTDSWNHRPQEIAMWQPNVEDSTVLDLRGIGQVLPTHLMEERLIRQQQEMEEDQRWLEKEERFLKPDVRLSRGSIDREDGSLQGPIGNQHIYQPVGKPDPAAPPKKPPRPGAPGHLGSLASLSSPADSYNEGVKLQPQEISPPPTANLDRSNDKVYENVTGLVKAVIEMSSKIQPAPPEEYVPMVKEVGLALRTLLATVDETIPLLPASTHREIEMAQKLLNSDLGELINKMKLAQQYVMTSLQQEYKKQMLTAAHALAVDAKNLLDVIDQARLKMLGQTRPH
MST4 (human), sequence (Q9P289 whole entry, looked up): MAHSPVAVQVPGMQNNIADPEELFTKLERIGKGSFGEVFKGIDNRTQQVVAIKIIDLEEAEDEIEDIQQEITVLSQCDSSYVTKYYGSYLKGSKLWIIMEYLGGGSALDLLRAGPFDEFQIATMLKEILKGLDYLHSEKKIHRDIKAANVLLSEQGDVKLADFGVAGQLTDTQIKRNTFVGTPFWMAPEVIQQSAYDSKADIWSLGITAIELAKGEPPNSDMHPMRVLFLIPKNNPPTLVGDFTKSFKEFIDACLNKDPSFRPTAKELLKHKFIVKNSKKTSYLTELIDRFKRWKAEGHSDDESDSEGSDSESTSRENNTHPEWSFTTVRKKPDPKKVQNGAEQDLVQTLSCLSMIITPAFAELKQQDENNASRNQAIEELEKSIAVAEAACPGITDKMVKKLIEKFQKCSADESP
MARK4 (human), sequence (Q96L34 whole entry, looked up): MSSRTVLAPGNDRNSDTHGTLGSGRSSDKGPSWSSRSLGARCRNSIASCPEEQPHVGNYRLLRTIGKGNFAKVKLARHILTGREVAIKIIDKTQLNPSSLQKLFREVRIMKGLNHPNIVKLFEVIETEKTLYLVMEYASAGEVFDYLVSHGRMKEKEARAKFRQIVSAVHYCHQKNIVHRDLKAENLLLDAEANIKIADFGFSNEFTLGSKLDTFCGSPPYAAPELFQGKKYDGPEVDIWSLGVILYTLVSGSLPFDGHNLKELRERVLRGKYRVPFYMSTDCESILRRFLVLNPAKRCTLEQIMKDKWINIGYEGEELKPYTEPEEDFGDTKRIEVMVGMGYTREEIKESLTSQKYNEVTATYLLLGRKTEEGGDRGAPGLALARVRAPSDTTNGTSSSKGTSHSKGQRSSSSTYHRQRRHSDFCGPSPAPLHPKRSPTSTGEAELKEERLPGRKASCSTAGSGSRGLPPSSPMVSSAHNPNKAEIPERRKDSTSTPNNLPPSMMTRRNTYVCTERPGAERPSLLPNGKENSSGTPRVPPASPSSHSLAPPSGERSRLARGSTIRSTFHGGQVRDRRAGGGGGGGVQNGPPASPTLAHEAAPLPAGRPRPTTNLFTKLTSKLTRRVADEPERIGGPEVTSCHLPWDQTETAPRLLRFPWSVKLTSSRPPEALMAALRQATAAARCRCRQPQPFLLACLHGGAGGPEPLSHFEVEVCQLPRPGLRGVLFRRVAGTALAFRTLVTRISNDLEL
LCK (human), sequence (P06239 whole entry, looked up): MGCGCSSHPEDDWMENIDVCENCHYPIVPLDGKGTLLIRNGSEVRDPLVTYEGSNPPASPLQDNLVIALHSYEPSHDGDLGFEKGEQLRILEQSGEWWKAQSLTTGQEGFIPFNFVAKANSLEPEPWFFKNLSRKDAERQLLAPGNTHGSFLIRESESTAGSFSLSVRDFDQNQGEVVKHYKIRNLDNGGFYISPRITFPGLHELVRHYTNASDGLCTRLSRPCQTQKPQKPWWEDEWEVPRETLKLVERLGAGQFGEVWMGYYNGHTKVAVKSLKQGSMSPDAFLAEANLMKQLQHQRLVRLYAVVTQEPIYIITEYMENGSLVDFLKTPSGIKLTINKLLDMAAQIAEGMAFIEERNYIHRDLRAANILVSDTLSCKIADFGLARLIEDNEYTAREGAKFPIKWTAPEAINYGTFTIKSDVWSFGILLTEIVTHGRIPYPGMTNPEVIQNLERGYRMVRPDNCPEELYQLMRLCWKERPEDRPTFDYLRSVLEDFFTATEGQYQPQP
PRKX (human), sequence (P51817 whole entry, looked up): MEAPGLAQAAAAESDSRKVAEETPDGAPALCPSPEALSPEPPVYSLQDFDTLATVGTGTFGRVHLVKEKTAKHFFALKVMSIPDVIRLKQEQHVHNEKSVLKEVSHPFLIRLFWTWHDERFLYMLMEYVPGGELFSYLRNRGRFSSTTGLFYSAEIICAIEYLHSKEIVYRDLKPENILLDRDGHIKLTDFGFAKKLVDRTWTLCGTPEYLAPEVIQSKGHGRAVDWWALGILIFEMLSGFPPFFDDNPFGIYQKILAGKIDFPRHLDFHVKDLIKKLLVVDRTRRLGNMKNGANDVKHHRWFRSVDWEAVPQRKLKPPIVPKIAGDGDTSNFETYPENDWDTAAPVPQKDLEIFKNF

Q: With `COc1cc(Nc2c(C#N)cnc3cc(OCCCN4CCN(C)CC4)c(OC)cc23)c(Cl)cc1Cl` as the compound, how does the residual activity (PRKX (human)) read?
A: Its residual activity is 110%.

Q: What about the residual activity (PRKCD (human)) of the same compound?
A: The residual activity was 40.3%.

Q: And the residual activity (MARK4 (human))?
A: Its residual activity is 60.6%.

Q: And the residual activity (CAMK1G (human))?
A: The residual activity was 82.7%.

Q: What about the residual activity (MAPK13 (human)) of the same compound?
A: Its residual activity is 91.2%.

Q: What about the residual activity (PAK2 (human)) of the same compound?
A: Its residual activity is 69.4%.

Q: And the residual activity (DYRK4 (human))?
A: The residual activity was 97.9%.

Q: And the residual activity (AURKC (human))?
A: Its residual activity is 82.1%.

Q: What about the residual activity (TXK (human)) of the same compound?
A: Its residual activity is 27.5%.

Q: What about the residual activity (FRK (human)) of the same compound?
A: Its residual activity is 29.2%.

Q: What about the residual activity (CLK1 (human)) of the same compound?
A: The residual activity was 81%.

Q: What about the residual activity (ZAP70 (human)) of the same compound?
A: Its residual activity is 101%.

Q: And the residual activity (MAP3K7 TAB1 (human))?
A: Its residual activity is 28.3%.

Q: What about the residual activity (PTK2 (human)) of the same compound?
A: The residual activity was 96%.

Q: And the residual activity (TSSK2 (human))?
A: The residual activity was 83.9%.

Q: What about the residual activity (PDPK1 (human)) of the same compound?
A: Its residual activity is 89.8%.

Q: And the residual activity (IKBKB (human))?
A: Its residual activity is 95.4%.

Q: What about the residual activity (EPHB2 (human)) of the same compound?
A: The residual activity was 17.4%.

Q: And the residual activity (MAP3K3 (human))?
A: The residual activity was 11.8%.

Q: What about the residual activity (RIPK2 (human)) of the same compound?
A: Its residual activity is 111%.

Q: What about the residual activity (MST4 (human)) of the same compound?
A: The residual activity was 5.9%.

Q: What about the residual activity (RPS6KA5 KD2 (human)) of the same compound?
A: Its residual activity is 90.8%.

Q: What about the residual activity (MERTK (human)) of the same compound?
A: The residual activity was 28.9%.

Q: And the residual activity (CDC42BPB (human))?
A: The residual activity was 88.2%.

Q: What about the residual activity (IGF1R (human)) of the same compound?
A: The residual activity was 91.5%.

Q: What about the residual activity (GSK3B (human)) of the same compound?
A: Its residual activity is 99.9%.

Q: And the residual activity (MAPKAPK5 (human))?
A: The residual activity was 94.7%.

Q: And the residual activity (TGFBR1 (human))?
A: The residual activity was 99%.

Q: And the residual activity (MAP3K2 (human))?
A: The residual activity was 23.5%.

Q: And the residual activity (RPS6KA6 KD1 KD2 (human))?
A: Its residual activity is 62%.

Q: And the residual activity (STK11 (human))?
A: The residual activity was 98.1%.

Q: And the residual activity (MAP4K5 (human))?
A: Its residual activity is 1.72%.

Q: What about the residual activity (TAOK2 (human)) of the same compound?
A: Its residual activity is 65.4%.

Q: And the residual activity (LIMK1 (human))?
A: The residual activity was 96.4%.

Q: And the residual activity (PLK3 (human))?
A: The residual activity was 98.5%.

Q: What about the residual activity (DSTYK (human)) of the same compound?
A: The residual activity was 104%.

Q: And the residual activity (PDGFRB (human))?
A: The residual activity was 74.8%.

Q: What about the residual activity (BTK (human)) of the same compound?
A: Its residual activity is 5.69%.

Q: What about the residual activity (LCK (human)) of the same compound?
A: Its residual activity is 1.88%.

Q: And the residual activity (PRKCZ (human))?
A: Its residual activity is 89.7%.

Q: What about the residual activity (MINK1 (human)) of the same compound?
A: The residual activity was 1.21%.

Q: And the residual activity (RET (human))?
A: Its residual activity is 18.9%.

Q: `N#Cc1c[nH]c2c[nH]/c(=N\Cc3cccnc3)cc2/c1=N\c1ccc(F)c(Cl)c1` was tested. Which residual activity (PRKX (human)) did it give?
A: The residual activity was 101%.

Q: And the residual activity (PRKCD (human))?
A: The residual activity was 95.2%.

Q: And the residual activity (MARK4 (human))?
A: The residual activity was 96.4%.

Q: And the residual activity (CAMK1G (human))?
A: The residual activity was 96.1%.

Q: And the residual activity (MAPK13 (human))?
A: Its residual activity is 101%.

Q: What about the residual activity (PAK2 (human)) of the same compound?
A: Its residual activity is 66.6%.

Q: And the residual activity (DYRK4 (human))?
A: The residual activity was 84.4%.

Q: And the residual activity (AURKC (human))?
A: Its residual activity is 91.8%.

Q: What about the residual activity (TXK (human)) of the same compound?
A: Its residual activity is 88.1%.

Q: What about the residual activity (FRK (human)) of the same compound?
A: The residual activity was 101%.

Q: And the residual activity (CLK1 (human))?
A: Its residual activity is 91%.

Q: What about the residual activity (ZAP70 (human)) of the same compound?
A: The residual activity was 103%.

Q: What about the residual activity (MAP3K7 TAB1 (human)) of the same compound?
A: The residual activity was 89.5%.

Q: What about the residual activity (PTK2 (human)) of the same compound?
A: The residual activity was 99.6%.

Q: What about the residual activity (TSSK2 (human)) of the same compound?
A: Its residual activity is 100%.

Q: What about the residual activity (PDPK1 (human)) of the same compound?
A: The residual activity was 85.3%.

Q: What about the residual activity (IKBKB (human)) of the same compound?
A: The residual activity was 103%.

Q: And the residual activity (EPHB2 (human))?
A: Its residual activity is 97.4%.

Q: And the residual activity (MAP3K3 (human))?
A: Its residual activity is 75%.

Q: And the residual activity (RIPK2 (human))?
A: Its residual activity is 85.3%.

Q: What about the residual activity (MST4 (human)) of the same compound?
A: Its residual activity is 95%.

Q: What about the residual activity (RPS6KA5 KD2 (human)) of the same compound?
A: Its residual activity is 102%.

Q: And the residual activity (MERTK (human))?
A: The residual activity was 67.2%.

Q: What about the residual activity (CDC42BPB (human)) of the same compound?
A: The residual activity was 124%.

Q: And the residual activity (IGF1R (human))?
A: Its residual activity is 93.8%.

Q: And the residual activity (GSK3B (human))?
A: The residual activity was 99.8%.

Q: And the residual activity (MAPKAPK5 (human))?
A: The residual activity was 99.6%.

Q: And the residual activity (TGFBR1 (human))?
A: The residual activity was 99.6%.

Q: And the residual activity (MAP3K2 (human))?
A: Its residual activity is 81.2%.

Q: And the residual activity (RPS6KA6 KD1 KD2 (human))?
A: Its residual activity is 104%.

Q: What about the residual activity (STK11 (human)) of the same compound?
A: The residual activity was 91.1%.

Q: And the residual activity (MAP4K5 (human))?
A: Its residual activity is 61.7%.

Q: What about the residual activity (TAOK2 (human)) of the same compound?
A: Its residual activity is 86.1%.

Q: What about the residual activity (LIMK1 (human)) of the same compound?
A: Its residual activity is 101%.

Q: And the residual activity (PLK3 (human))?
A: Its residual activity is 91.1%.

Q: And the residual activity (DSTYK (human))?
A: The residual activity was 87.3%.

Q: What about the residual activity (PDGFRB (human)) of the same compound?
A: Its residual activity is 101%.

Q: What about the residual activity (BTK (human)) of the same compound?
A: Its residual activity is 98.3%.

Q: And the residual activity (LCK (human))?
A: The residual activity was 97.3%.

Q: What about the residual activity (PRKCZ (human)) of the same compound?
A: The residual activity was 93.9%.

Q: What about the residual activity (MINK1 (human)) of the same compound?
A: The residual activity was 77.5%.

Q: And the residual activity (RET (human))?
A: Its residual activity is 107%.
